Laboratory results from US10519169B2, “3-(1H-pyrrolo[2,3-C]pyridin-2-yl)-1 H-pyrazolo[4,3-B]pyridines and therapeutic uses thereof” (Samumed, LLC, priority 2015, dated 2019).

How the values were obtained:
SW480 colon cancer cells = test: Cell viability assay (CellTiter-Blue), SW480 cells; format: cell-based; settings: Homo sapiens; for EC50: 96 h, four days, CellTiter-Blue; for inhibition at 10 µM: given for EC50 >10 μM, read-out: percent inhibition at 10 μM
Method: Representative compounds were screened using the following assay procedure to assess the effect on cell viability as described below.
Each compound was dissolved in DMSO as a 10 mM stock and used to prepare compound source plates. Serial dilution (1:3, 8-point dose-response curves from […]) and compound transfer was performed using the ECHO 550 (Labcyte, Sunnyvale, Calif.) into 96-well clear bottom, black-walled plates (Corning-Costar).
Approximately 2×10^3 SW480 colon cancer cells were seeded into each well and allowed to incubate in the presence or absence of compound for four days at 37° C./5% CO2. Eight replicates of DMSO-treated cells served as controls and cells treated with compound were performed in duplicate.
After incubation, 20 μL of CellTiter-Blue (Promega) was added to each well allowed to incubate for approximately 3 hours. This reagent was a buffered solution which contains resazurin, metabolically active cells were able to reduce rezarurin (blue) into resorufin (pink) which was highly fluorescent. This measured fluorescence was used as a readout for cell viability.
After incubation, the plates were read at Ex 560 nm Em 590 nm (Cytation 3, BioTek). Dose-response curves were generated and EC50 concentration values were calculated using non-linear regression curve fit in the GraphPad Prism (San Diego, Calif.) or Dotmatics' Studies Software (Bishops Stortford, UK). For EC50 of >10 μM, the percent inhibition at 10 μM is provided.

[1] = tested on: primary human fibroblasts derived from IPF patients (LL29 cells) treated with TGF-β1; test: Inhibition of fibrotic process, αSMA staining in TGF-β1 treated LL29 fibroblasts; format: cell-based; settings: Fibroblast; for EC50: 96 h, TGF-β1 20 ng/mL, 4 days, % cells positive for αSMA; for inhibition at 10 µM: given for EC50 >10 μM, TGF-β1, αSMA, read-out: percent inhibition at 10 μM
Description: Representative compounds were screened using primary human fibroblasts (derived from IPF patients) treated with TGF-β1 to determine their ability to inhibit the fibrotic process.
Primary human fibroblasts derived from IPF patients (LL29 cells) [^1Xiaoqiu Liu, et. al., “Fibrotic Lung Fibroblasts Show Blunted Inhibition by cAMP Due to Deficient cAMP Response Element-Binding Protein Phosphorylation”, Journal of Pharmacology and Experimental Therapeutics (2005), 315(2), 678-687; ^2Watts, K. L., et. al., “RhoA signaling modulates cyclin D1 expression in human lung fibroblasts; implications for idiopathic pulmonary fibrosis”, Respiratory Research (2006), 7(1), 88] were obtained from American Type Culture Collection (ATCC) and expanded in F12 medium supplemented with 15% Fetal Bovine Serum and Penicillin/Streptomycin.
Each compound was dissolved in DMSO as a 10 mM stock and used to prepare compound source plates. Serial dilution (1:2, 11-point dose-response curves from […] to […]) and compound transfer was performed using the ECHO 550 (Labcyte, Sunnyvale, Calif.) into 384-well clear bottom assay plates (Greiner Bio-One) with appropriate DMSO backfill for a final DMSO concentration of 0.1%. LL29 cells are plated at 1,500 cells/well in 80 μL/well F12 medium supplemented with 1% Fetal Bovine Serum. One hour after addition of the cells, TGF-β1 (Peprotech; 20 ng/mL) was added to the plates to induce fibrosis (ref. 1 and 2 above). Wells treated with TGF-β1 and containing DMSO were used as controls. Cells were incubated at 37° C. and 5% CO2 for 4 days. Following incubation for 4 days, SYTOX green nucleic acid stain (Life Technologies [Thermo Fisher Scientific]) was added to the wells at a final concentration of 1 μM and incubated at room temperature for 30 min. Cells were then fixed using 4% formaldehyde (Electron Microscopy Sciences), washed 3 times with PBS followed by blocking and permeabilization using 3% Bovine Serum Albumin (BSA; Sigma) and 0.3% Triton X-100 (Sigma) in PBS. Cells were then stained with antibody specific to α-smooth muscle actin (aSMA; Abcam) (ref. 1 and 2 above) in 3% Bovine Serum Albumin (BSA; Sigma) and 0.3% Triton X-100 (Sigma) in PBS, and incubated overnight at 4° C. Cells were then washed 3 times with PBS, followed by incubation with Alexa Flor-647 conjugated secondary antibody (Life Technologies [Thermo Fisher Scientific]) and DAPI at room temperature for 1 hour. Cells were then washed 3 times with PBS and plates were sealed for imaging. aSMA staining was imaged by excitation at 630 nm and emission at 665 nm and quantified using the Compartmental Analysis program on the CellInsight CX5 (Thermo Scientific). Dead or apoptotic cells were excluded from analysis based on positive SYTOX green staining. % of total cells positive for aSMA were counted in each well and normalized to the average of 11 wells treated with TGF-β1 on the same plate using Dotmatics' Studies Software. The normalized averages (fold change over untreated) of 3 replicate wells for each compound concentration were used to create dose-responses curves and EC50 values were calculated using non-linear regression curve fit in the Dotmatics' Studies Software. For EC50 of >10 μM, the percent inhibition at 10 μM is provided.

| Compound | EC50 (SW480 colon cancer cells) [µM] | EC50 [1] [µM] | inhibition at 10 µM [1] [%] | inhibition at 10 µM (SW480 colon cancer cells) [%] |
| --- | --- | --- | --- | --- |
| Fc1cccc(-c2cncc3[nH]c(-c4n[nH]c5ccc(-c6cccnc6)nc45)cc23)c1 [Compound 4, 3-(4-(3-Fluorophenyl)-1H-pyrrolo[2,3-c]pyridin-2-yl)-5-(pyridin-3-yl)-1H-pyrazolo[4,3-b]pyridine] | 0.475 | 0.272 | – | – |
| CN(C)c1cncc(-c2ccc3[nH]nc(-c4cc5c(-c6cccc(F)c6)cncc5[nH]4)c3n2)c1 [Compound 7, 5-(3-(4-(3-Fluorophenyl)-1H-pyrrolo[2,3-c]pyridin-2-yl)-1H-pyrazolo[4,3-b]pyridin-5-yl)-N,N-dimethylpyridin-3-amine] | 0.357 | 0.45 | – | – |
| Fc1cccc(-c2cncc3[nH]c(-c4n[nH]c5ccc(-c6cncc(CN7CCCCC7)c6)nc45)cc23)c1 [Compound 15, 3-(4-(3-Fluorophenyl)-1H-pyrrolo[2,3-c]pyridin-2-yl)-5-(5-(piperidin-1-ylmethyl)pyridin-3-yl)-1H-pyrazolo[4,3-b]pyridine] | 4.61 | > 10 | – | – |
| Cc1ccncc1-c1ccc2[nH]nc(-c3cc4c(-c5ccc(F)cc5)cncc4[nH]3)c2n1 [Compound 33, 3-(4-(4-Fluorophenyl)-1H-pyrrolo[2,3-c]pyridin-2-yl)-5-(4-methylpyridin-3-yl)-1H-pyrazolo[4,3-b]pyridine] | 1.86 | 1.76 | – | – |
| O=C(Nc1cncc(-c2ccc3[nH]nc(-c4cc5c(-c6ccc(F)cc6)cncc5[nH]4)c3n2)c1)c1ccccc1 [Compound 39, N-(5-(3-(4-(4-Fluorophenyl)-1H-pyrrolo[2,3-c]pyridin-2-yl)-1H-pyrazolo [4,3-b]pyridin-5-yl)pyridin-3-yl)benzamide] | 2.31 | > 10 | 39.8 | – |
| Fc1ccc(-c2cncc3[nH]c(-c4n[nH]c5ccc(-c6cncc(CN7CCC(F)(F)C7)c6)nc45)cc23)cc1 [Compound 54, 5-(5-((3,3-Difluoropyrrolidin-1-yl)methyl)pyridin-3-yl)-3-(4-(4-fluorophenyl)-1H-pyrrolo[2,3-c]pyridin-2-yl)-1H-pyrazolo[4,3-b]pyridine] | 0.827 | 0.37 | – | – |
| CN(C)Cc1cncc(-c2ccc3[nH]nc(-c4cc5c(-c6ccccc6F)cncc5[nH]4)c3n2)c1 [Compound 69, 1-(5-(3-(4-(2-Fluorophenyl)-1H-pyrrolo[2,3-c]pyridin-2-yl)-1H-pyrazolo [4,3-b]pyridin-5-yl)pyridin-3-yl)-N,N-dimethylmethanamine] | 0.557 | 1.12 | – | – |
| Cc1ccncc1-c1ccc2[nH]nc(-c3cc4c(-c5cccnc5)cncc4[nH]3)c2n1 [Compound 89, 5-(4-Methylpyridin-3-yl)-3-(4-(pyridin-3-yl)-1H-pyrrolo[2,3-c]pyridin-2-yl)-1H-pyrazolo[4,3-b]pyridine] | 8.84 | 1.54 | – | – |
| FC1(F)CCN(Cc2cncc(-c3ccc4[nH]nc(-c5cc6c(-c7cccnc7)cncc6[nH]5)c4n3)c2)C1 [Compound 110, 5-(5-((3,3-Difluoropyrrolidin-1-yl)methyl)pyridin-3-yl)-3-(4-(pyridin-3-yl)-1H-pyrrolo[2,3-c]pyridin-2-yl)-1H-pyrazolo[4,3-b]pyridine] | 4.86 | 0.329 | – | – |
| Nc1cncc(-c2ccc3[nH]nc(-c4cc5c(-c6ccncc6)cncc5[nH]4)c3n2)c1 [Compound 115, 5-(3-(4-(Pyridin-4-yl)-1H-pyrrolo[2,3-c]pyridin-2-yl)-1H-pyrazolo[4,3-b]pyridin-5-yl)pyridin-3-amine] | > 10 | 6.65 | – | 7.6 |
| c1cc(-c2cncc3[nH]c(-c4n[nH]c5ccc(-c6cncc(CN7CCCCC7)c6)nc45)cc23)ccn1 [Compound 127, 5-(5-(Piperidin-1-ylmethyl)pyridin-3-yl)-3-(4-(pyridin-4-yl)-1H-pyrrolo[2,3-c]pyridin-2-yl)-1H-pyrazolo[4,3-b]pyridine] | 5.26 | 4.96 | – | – |
| O=C(Nc1cncc(-c2ccc3[nH]nc(-c4cc5ccncc5[nH]4)c3n2)c1)C1CCCC1 [Compound 274, N-(5-(3-(1H-Pyrrolo[2,3-c]pyridin-2-yl)-1H-pyrazolo[4,3-b]pyridin-5-yl)pyridin-3-yl)cyclopentanecarboxamide] | 3.12 | 0.656 | – | – |
| c1ccc(-c2ccc3[nH]nc(-c4cc5ccncc5[nH]4)c3n2)nc1 [Compound 280, 5-(Pyridin-2-yl)-3-(1H-pyrrolo[2,3-c]pyridin-2-yl)-1H-pyrazolo[4,3-b]pyridine] | > 10 | 1.25 | – | 3.3 |
| O=C(Cc1ccccc1)Nc1cncc(-c2ccc3[nH]nc(-c4cc5c(-c6ccoc6)cncc5[nH]4)c3n2)c1 [Compound 318, N-(5-(3-(4-(Furan-3-yl)-1H-pyrrolo[2,3-c]pyridin-2-yl)-1H-pyrazolo[4,3-b]pyridin-5-yl)pyridin-3-yl)-2-phenylacetamide] | > 10 | > 10 | 35.5 | 23.8 |
| Cc1ccncc1-c1ccc2[nH]nc(-c3cc4c(-c5cc(F)cc(CNS(C)(=O)=O)c5)cncc4[nH]3)c2n1 [Compound 481, N-(3-Fluoro-5-(2-(5-(4-methylpyridin-3-yl)-1H-pyrazolo[4,3-b]pyridin-3-yl)-1H-pyrrolo[2,3-c]pyridin-4-yl)benzyl)methanesulfonamide] | 2.78 | 0.262 | – | – |
| CS(=O)(=O)NCc1cc(F)cc(-c2cncc3[nH]c(-c4n[nH]c5ccc(-c6cncc(CN7CCCCC7)c6)nc45)cc23)c1 [Compound 491, N-(3-Fluoro-5-(2-(5-(5-(piperidin-1-ylmethyl)pyridin-3-yl)-1H-pyrazolo[4,3-b]pyridin-3-yl)-1H-pyrrolo[2,3-c]pyridin-4-yl)benzyl)methanesulfonamide] | 1.96 | 1.22 | – | – |
| CS(=O)(=O)NCc1cc(F)cc(-c2cncc3[nH]c(-c4n[nH]c5ccc(-c6cncnc6)nc45)cc23)c1 [Compound 503, N-(3-Fluoro-5-(2-(5-(pyrimidin-5-yl)-1H-pyrazolo[4,3-b]pyridin-3-yl)-1H-pyrrolo[2,3-c]pyridin-4-yl)benzyl)methane sulfonamide] | > 10 | 2.21 | – | 28.3 |
| CS(=O)(=O)NCc1cc(F)cc(-c2cncc3[nH]c(-c4n[nH]c5ccc(-c6ccccn6)nc45)cc23)c1 [Compound 504, N-(3-Fluoro-5-(2-(5-(pyridin-2-yl)-1H-pyrazolo[4,3-b]pyridin-3-yl)-1H-pyrrolo[2,3-c]pyridin-4-yl)benzyl)methanesulfonamide] | > 10 | 3.67 | – | 47.6 |
| Fc1cccc(-c2cncc3[nH]c(-c4n[nH]c5ccc(C6CCNCC6)nc45)cc23)c1 [Compound 505, 3-(4-(3-Fluorophenyl)-1H-pyrrolo[2,3-c]pyridin-2-yl)-5-(piperidin-4-yl)-1H-pyrazolo[4,3-b]pyridine] | > 10 | > 10 | 0 | 26 |
